From patent US20240316146A1, “METHODS OF REDUCING NEUROPATHY AND NEUROPATHIC SYMPTOMS AND TREATING CANCER” (Bexion Pharmaceuticals Inc., priority 2021, published 2024)
Values joined by “and” are separate entries in the source; they are usually repeats but may differ in a detail not shown here. Identical values can stand only once.

Columns and labels:
[1] = test system: mouse oxaliplatin model of chemotherapy-induced neuropathy; experiment: Static mechanical (tactile) allodynia, von Frey filaments, Study 2; format: in vivo; conditions: Study 2; oxaliplatin treated mice, days assessed; BXQ-350 2 and 10 mg/kg
Method: (§1) Static mechanical tactile allodynia: Static mechanical (tactile) allodynia was assessed by measurement of withdrawal threshold using calibrated (force; g) von-Frey monofilaments (Touch-Test Sensory Evaluator; Scientific Marketing Associates) applied to the plantar surface of the left hind-paw. The animals were placed in individual Perspex boxes on a raised metal mesh for 30-40 min before the test to habituate. A series of graduated von Frey hairs (0.07, 0.16, 0.4, 0.6 and 1 g) were applied in sequence with a protocol of 1 sec on 1 sec off repeated 10 times. Each hair was applied perpendicularly to the center of the ventral surface of the paw until it bent slightly. The force applied to the hind-paw of the animal to induce 5 responses out of 10 trials was recorded as paw withdrawal threshold (PWT) 50%.
(§2) 60 adult male C57/BL6 mice (Charles River), 6-7 weeks of age, were housed in groups of 5 in Perspex cages, in a controlled environment of constant temperature and humidity (temperature: 21±1° C., light: dark cycle of 12:12 hours), with food and water available ad libitum. Animals were allowed to recover from transportation for at least one week before commencing experiments.
Static mechanical tactile allodynia: The same apparatus and protocol were used as for Study 1.

Body weights, Study 2 = format: in vivo, mouse; conditions: Group B Oxaliplatin/Vehicle, individual mice
From the text: Body Weights: The mice were weighed daily starting 1 day prior to treatment through day 9.

[2] = test system: mouse oxaliplatin model of chemotherapy-induced neuropathy; experiment: Static mechanical (tactile) allodynia, von Frey filaments, Study 1; format: in vivo
Method: as §2, §1
(§3) Warm vials of BQX-350 were brought to room temperature and reconstituted with 4 mL water for injection via syringe. The vials were gently agitated and/or vortexed for 15-20 sec and allowed to sit at room temp for 5 mins. The rehydrated solution contained 2.2 mg/mL SapC (8.8 mg SapC per vial). About […] of the formulation was injected to achieve a target dose of 20 mg/kg in each mouse. Pregabalin was reconstituted in water and injected to achieve a target dose of 30 mg/kg in each mouse.
(§4) A two-way repeated measures ANOVA with ‘treatment’ as a between subjects effect, and ‘day’ as a within subjects effect was used (using GraphPad Prism version 9.0 for Windows, GraphPad Software, San Diego California USA), followed by Dunnett's multi comparisons test. Data is presented as mean±SEM.

[3] = test system: mouse oxaliplatin model of chemotherapy-induced neuropathy; experiment: Thermal hypersensitivity, cold plate test, Study 2; conditions: Group B Oxaliplatin/Vehicle; for Latency to withdrawal behaviour in the cold plate test (15° C.): N 12
Method: (§5) Thermal hypersensitivity: Thermal hypersensitivity was assessed using a dynamic cold plate (Bioseb, France) set at a fixed temperature of 15° C. This method allows analysis of more integrated behaviors rather than reflex behaviors, e.g., the tail immersion test. In animal studies, thermal sensitivity is mostly evaluated based on nociceptive reaction latencies in response to a given thermal aversive stimulus. In this classical test, the temperature of the plate is fixed and remains constant: the latency to the first paw licking, jumps or withdrawal is taken as an index of nociceptive threshold. […] The results of the study are shown in Table 5 (raw data) below, Table 6 (summary) below, FIG. 4, and FIG. 5.
as §2
Thermal hypersensitivity: The same apparatus and protocol were used as for Study 1. The results of Study 2 are shown in Table 11 (raw data), Table 12 (summary), FIG. 8, and FIG. 9.

[4] = test system: mouse oxaliplatin model of chemotherapy-induced neuropathy; experiment: Thermal hypersensitivity, cold plate test 15° C., Study 1; format: in vivo
Method: as §2, §5, §3, §4

[5] = oxaliplatin 10 mg/kg IP day 0 (+vehicle, BXQ-350 20 mg/kg IP or pregabalin 30 mg/kg IP), group mean
[6] = oxaliplatin treated animals, day 3 to day 9, BXQ-350 20 mg/kg, pregabalin 30 mg/kg 2 hours before assessment
[7] = cold plate 15° C., oxaliplatin 10 mg/kg IP day 0 (+vehicle, BXQ-350 20 mg/kg IP or pregabalin 30 mg/kg IP), group mean

## O=C([O-])C(=O)[O-].[NH-][C@@H]1CCCC[C@H]1[NH-].[Pt+4] (relative stereo) [Oxaliplatin, cis-[(1R,2R)-1,2-cyclohexanediamine-N,N′][oxalato(2)-O,O′] platinum]
[1]
  paw withdrawal threshold (PWT) levels (in words): induced consistent and persistent mechanical allodynic response
Body weights, Study 2; D 0
  Individual body weights: 26.0 g (2×) and 22.4 g and 23.6 g (2×) and 23.1 g and 24.5 g (2×) and 23.2 g and 24.6 g and 21.9 g and 26.1 g
Body weights, Study 2; D 1
  Individual body weights: 24.9 g (2×) and 21.1 g and 23.5 g (2×) and 22.5 g and 23.9 g and 23.7 g and 22.9 g and 23.0 g and 20.8 g and 25.4. g
Body weights, Study 2; D 2
  Individual body weights: 24.8 g and 21.3 g and 23.2 g (2×) and 22.3 g and 24.6 g and 23.8 g (2×) and 23.0 g and 23.6 g and 21.0 g and 25.0 g
Body weights, Study 2; D 3
  Individual body weights: 24.1 g and 22.4 g (2×) and 22.7 g and 22.2 g (2×) and 23.7 g and 23.0 g (2×) and 22.1 g and 20.6 g and 24.4 g
Body weights, Study 2; D 4
  Individual body weights: 25.0 g (2×) and 23.5 g (3×) and 23.1 g (2×) and 22.6 g and 23.7 g and 22.7 g and 21.3 g and 24.8 g
Body weights, Study 2; D 5
  Individual body weights: 25.2 g and 23.8 g and 22.8 g (2×)
Body weights, Study 2; D −1
  Individual body weights: 25.3 g and 21.8 g and 23.6 g and 22.9 g (3×) and 25.5 g and 23.8 g and 24.1 g and 24.3 g and 21.6 g and 26.1 g
Body weights, Study 2; D −2
  Individual body weights: 25.4 g (2×) and 21.9 g and 23.8 g (2×) and 23.3 g and 23.9 g and 23.0 g and 23.5 g and 24.1 g and 21.8 g and 25.2 g
Body weights, Study 2; D −3
  Individual body weights: 26.0 g (2×) and 22.0 g (2×) and 24.0 g (4×) and 23.0 g (2×) and 25.0 g (2×)
[2]; [5]
  PWT 50% (g) Baseline: 0.780 g
  PWT 50% (g) D3: 0.423 g
  PWT 50% (g) D5: 0.357 g
  PWT 50% (g) D7: 0.369 g
  PWT 50% (g) D9: 0.373 g
[2]; [6]
  mechanical allodynia (in words): induced consistent and persistent mechanical allodynic response
[3]; oxaliplatin 10 mg/kg i.p. day 0, D 3, individual mice
  Individual latency to displaying withdrawal behaviour in the cold plate test: 18.8 s and 69.3 s and 84.0 s and 28.0 s and 19.9 s and 34.2 s and 36.8 s and 23.9 s and 77.7 s and 54.5 s
[3]; oxaliplatin 10 mg/kg i.p. day 0, D3, mean (SEM)
  Latency to withdrawal behaviour in the cold plate test (15° C.): 42.933 + s
[3]; oxaliplatin 10 mg/kg i.p. day 0, D 5, individual mice
  Individual latency to displaying withdrawal behaviour in the cold plate test: 29.8 s and 12.7 s and 28.7 s and 18.6 s and 13.1 s and 25.5 s and 33.8 s and 17.4 s and 47.1 s and 16.4 s and 11.8 s and 43.8 s
[3]; oxaliplatin 10 mg/kg i.p. day 0, D5, mean (SEM)
  Latency to withdrawal behaviour in the cold plate test (15° C.): 24.888 ? s
[3]; oxaliplatin 10 mg/kg i.p. day 0, D 7, individual mice
  Individual latency to displaying withdrawal behaviour in the cold plate test: 13.7 s and 22.3 s and 7.4 s and 28.4 s and 4.8 s and 23.9 s and 26.1 s and 29.6 s and 23.2 s and 26.3 s and 12.7 s and 44.2 s
[3]; oxaliplatin 10 mg/kg i.p. day 0, D7, mean (SEM)
  Latency to withdrawal behaviour in the cold plate test (15° C.): 21.883 + s
[3]; oxaliplatin 10 mg/kg i.p. day 0, D 9, individual mice
  Individual latency to displaying withdrawal behaviour in the cold plate test: 25.2 s and 23.9 s and 39.0 s and 17.2 s and 18.4 s and 23.0 s and 35.0 s and 23.8 s and 12.7 s and 30.6 s and 6.4 s and 33.2 s
[3]; oxaliplatin 10 mg/kg i.p. day 0, D9, mean (SEM)
  Latency to withdrawal behaviour in the cold plate test (15° C.): 24.033 + s
[3]; oxaliplatin 10 mg/kg i.p. day 0, D −1, individual mice
  Individual latency to displaying withdrawal behaviour in the cold plate test: 26.1 s and 32.9 s and 45.8 s and 42.4 s and 24.4 s and 53.7 s and 64.3 s and 91.7 s and 31.2 s and 45.0 s and 37.0 s and 33.4 s
[3]; oxaliplatin 10 mg/kg i.p. day 0, D −1, mean (SEM)
  Latency to withdrawal behaviour in the cold plate test (15° C.): 43.992 + s
[3]; oxaliplatin 10 mg/kg i.p. day 0, D −2, individual mice
  Individual latency to displaying withdrawal behaviour in the cold plate test: 36.8 s and 63.0 s and 47.4 s and 35.8 s and 31.9 s and 42.2 s and 61.4 s and 63.3 s and 55.6 s and 41.5 s and 29.0 s and 36.7 s
[3]; oxaliplatin 10 mg/kg i.p. day 0, D −2, mean (SEM)
  Latency to withdrawal behaviour in the cold plate test (15° C.): 45.383 + s
[3]; oxaliplatin 10 mg/kg i.p. day 0, D −3, individual mice
  Individual latency to displaying withdrawal behaviour in the cold plate test: 29.9 s and 35.1 s and 40.1 s and 49.9 s and 24.7 s and 30.0 s and 72.0 s and 50.6 s and 67.4 s and 55.6 s
[3]; oxaliplatin 10 mg/kg i.p. day 0, D −3, mean (SEM)
  Latency to withdrawal behaviour in the cold plate test (15° C.): 44.183 + s
[4]; [7]
  Latency (s) Baseline: 54.717 s
  Latency (s) D 3: 25.583 s
  Latency (s) D 5: 28.567 s
  Latency (s) D 7: 32.475 s
  Latency (s) D 9: 22.050 s
[4]; oxaliplatin 10 mg/kg IP day 0 (+vehicle, BXQ-350 20 mg/kg IP or pregabalin 30 mg/kg IP), Baseline, individual mice
  Individual latency to displaying withdrawal behaviour in the cold plate test: 45.4 s and 59.0 s and 48.3 s and 65.5 s and 80.0 s and 54.3 s and 46.2 s and 46.7 s and 46.5 s and 58.8 s and 48.6 s and 57.6 s
[4]; oxaliplatin 10 mg/kg IP day 0 (+vehicle, BXQ-350 20 mg/kg IP or pregabalin 30 mg/kg IP), Day 3, individual mice
  Individual latency to displaying withdrawal behaviour in the cold plate test: 22.9 s and 19.5 s and 25.9 s and 24.2 s and 30.2 s and 15.0 s and 31.3 s and 34.1 s and 22.0 s and 24.3 s and 35.5 s and 22.1 s
[4]; oxaliplatin 10 mg/kg IP day 0 (+vehicle, BXQ-350 20 mg/kg IP or pregabalin 30 mg/kg IP), Day 5, individual mice
  Individual latency to displaying withdrawal behaviour in the cold plate test: 30.3 s and 27.7 s and 39.8 s and 17.3 s and 31.1 s and 38.3 s and 24.5 s and 18.5 s and 16.0 s and 30.1 s and 33.9 s
[4]; oxaliplatin 10 mg/kg IP day 0 (+vehicle, BXQ-350 20 mg/kg IP or pregabalin 30 mg/kg IP), Day 7, individual mice
  Individual latency to displaying withdrawal behaviour in the cold plate test: 16.8 s and 45.9 s and 49.6 s and 37.6 s and 24.3 s and 28.8 s and 18.6 s and 23.0 s and 62.9 s and 31.8 s and 21.5 s and 28.9 s
[4]; oxaliplatin 10 mg/kg IP day 0 (+vehicle, BXQ-350 20 mg/kg IP or pregabalin 30 mg/kg IP), Day 9, individual mice
  Individual latency to displaying withdrawal behaviour in the cold plate test: 12.6 s and 13.6 s and 24.8 s and 23.1 s and 31.8 s and 20.9 s and 17.4 s and 25.0 s and 10.6 s and 19.4 s and 25.8 s
[4]; [6]
  thermal (cold) sensitivity, cold plate test (in words): increased thermal (cold) sensitivity
